Experimental data from patent US8580519B2, “Use of plasma HSP90 related to malignancy” (University of Maryland, Baltimore, priority 2006, dated 2013).
Like-named read-outs stand apart in the source and are kept apart here.

Key:
MEXF276 xenograft model = settings: 60 mg/kg/day i.p. on days 1-5 and 8-12; cited from earlier work
MEXF276L cells [1] = assay: Immunofluorescence localization of Hsp90 isoforms α and β; type: cell-based, human; settings: sensitive melanoma cells exposed to 17AAG, time course
Method: (§1) Cells were treated at the respective concentrations that cause total growth inhibition (TGI) (Burger et al., 2005). […] Co-localization of proteins results in the occurrence of orange to yellow colors in merged pictures. Bar=15 μm.

MEXF276L cells [2] = assay: Hsp90 isoforms and MMP2 in serum-free conditioned medium, Western blot; type: cell-based, human
Method: In addition, levels of matrix metalloprotease 2 (MMP2, FIG. 3B), an extracellular client protein of Hsp90α were analyzed.

MEXF276L cells [3] = assay: Cell cycle distribution, apoptotic sub G1 fraction; type: cell-based, human; settings: 17AAG at TGI
[4] = test system: MEXF276L and MEXF514L cells; assay: Hsp90 expression in whole cell lysates of 17AAG sensitive and resistant melanoma cell lines; type: cell-based, human; settings: 17AAG at TGI; responsive MEXF276L, not resistant MEXF514L
Method: as §1

Hsp90α = settings: for plasma Hsp90α at baseline versus after sorafenib alone: day -14 versus day -1, 14 day run in of daily oral sorafenib
Method: Human and xenograft plasma samples of 10 μL were added to sample diluent buffer and assayed in duplicate in the antibody-coated 96-well plate. After incubation at room temperature for one hour, wells were washed 6 times with washing buffer. 100 uL HRP conjugate was added to wells and incubated for one hour. Wells were washed 6 times, 100 uL TMB substrate was added to each well, and the plate was incubated for 20 minutes. Absorbance was measured at 450 nm on a plate reader.

MEXF276L xenografts = settings: tumor-bearing mice, MEXF276L and MEXF514L, 24, 48, 72 hrs after 60 mg/kg/d
Method: Approximately 100 μl blood was available through tail vein puncture, the 72 hr time point was collected by exsanguinations/cardiac puncture.

[5] = nude mice, days 1-4, 15-18 i.p.; cited from earlier work
[6] = preclinical toxicology studies; cited from earlier work

C=CCNC1=C2C[C@@H](C)C[C@H](OC)[C@H](O)[C@@H](C)/C=C(\C)[C@H](OC(N)=O)[C@@H](OC)/C=C\C=C(/C)C(=O)NC(=CC1=O)C2=O [17AAG, 17-allylamino, 17-demethoxygeldanamycin]
growth inhibition compared to control (MEXF276 xenograft model): 92%
time of actual tumor remissions (MEXF276 xenograft model): 10 to 17 days
tolerability (MEXF276 xenograft model): well tolerated (no animal death)
localization of Hsp90α and Hsp90β (MEXF276L cells [1]): Hsp90α is lost at 2-24 hrs
Hsp90α and Hsp90β detected in the medium (MEXF276L cells [2]): increased detection of Hsp90α but not Hsp90β in the medium
form of extracellular MMP2 (MEXF276L cells [2]): shift of the extracellular localized MMP2 from the fully active 66 kd form to the 72 kd latent form
apoptotic cell debris (sub G1 fraction) compared to control cells (MEXF276L cells [3]): only seen at 48 hrs
cytoplasmic Hsp90 level [4]: loss of cytoplasmic Hsp90
evidence of clinical response in patients with increase in plasma Hsp90α (Hsp90α; after 17AAG administration, shrinkage in 2/3, CT attenuation consistent with tumor necrosis in 1 of 3): 3/3
induction of plasma Hsp90α, pre (day -1) versus post (72 hrs, day 4) treatment (Hsp90α; cancer patients, p=0.0287): induction is significant
patients with increase in plasma Hsp90α (Hsp90α; day four, 72 hrs after first 17AAG dose, after 14 day sorafenib run in): 3 of 7
plasma Hsp90α after treatment versus pre 17-AAG (MEXF276L xenografts): increase in plasma Hsp90α in most cases

CN(C)/N=N/c1[nH]cnc1C(N)=O [DTIC]
maximal tolerated dose [5]: 70 mg/kg/day

COC1=C2C[C@@H](C)C[C@H](OC)[C@H](O)[C@@H](C)/C=C(\C)[C@H](OC(N)=O)[C@@H](OC)/C=C\C=C(/C)C(=O)NC(=CC1=O)C2=O [Geldanamycin]
hepatotoxicity [6]: severe hepatotoxicity

CNC(=O)c1cc(Oc2ccc(NC(=O)Nc3ccc(Cl)c(C(F)(F)F)c3)cc2)ccn1 [sorafenib]
plasma Hsp90α at baseline versus after sorafenib alone (Hsp90α): little difference in plasma Hsp90α
plasma Hsp90α at baseline versus after sorafenib alone (Hsp90α; listed as Bay 43-9006): no effects on Hsp90α
